Assay results as given in PubChem BioAssay (NCI).
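GI50 marks 50% less growth. The concentration for full growth arrest is given as TGI.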

What was measured:
Assay in all cases: DTP human tumour cell line panel, 384-well format
[1] = test system: OVCAR-3 ovarian
[2] = test system: 786-0 renal
[3] = test system: HCT-116 colon
[4] = test system: SR leukemia
[5] = test system: U251 glioblastoma
[6] = test system: OVCAR-5 ovarian
[7] = test system: MCF7 breast
[8] = test system: SF-539 CNS
[9] = test system: OVCAR-4 ovarian
[10] = test system: SW-620 colon
[11] = test system: SF-295 CNS
[12] = test system: LOX IMVI melanoma
[13] = test system: HCC-2998 colon

Compound `C[C@H](NC(=O)c1c(N)nn2cccnc12)c1cc2cccc(C#Cc3cnn(C)c3)c2c(=O)n1-c1ccccc1` has a GI50 [1] of 2.93 µM, a TGI [1] of 14.9 µM and a GI50 [2] of 4.91 µM. For the same compound, the TGI [2] was 17.2 µM, the GI50 [3] was 6.64 µM and the TGI [3] was 20 µM. For the same compound, the GI50 [4] was 4.16 µM, the TGI [4] was 16.9 µM and the GI50 [5] was 12.3 µM. For the same compound, the TGI [5] was 25.1 µM, the GI50 [6] was 8.39 µM and the TGI [6] was 22.2 µM. It also gave a GI50 [7] of 1.25 µM, a TGI [7] of 6.84 µM and a GI50 [8] of 4.67 µM. The TGI [8] was 17 µM, the GI50 [9] was 11.9 µM and the TGI [9] was 25.4 µM. It also gave a GI50 [10] of 15.3 µM, a TGI [10] of 28.7 µM and a GI50 [11] of 4.14 µM. The TGI [11] was 17.1 µM, the GI50 [12] was 2.95 µM and the TGI [12] was 12.7 µM. The GI50 [13] was 3.75 µM and the TGI [13] was 15.1 µM.
